15 molecules from patent US20170291905A1, “ARGININE […] INHIBITORS AND USES THEREOF” (Epizyme, Inc., priority 2014, published 2017) can be followed below.

Where a name gives a salt, the structure may show the parent alone.

The target in this test is T1, PRMT1 (Homo sapiens, UniProt Q99873).
T1 construct: host or cells: RKO cells
T1 sequence (Q99873 whole entry): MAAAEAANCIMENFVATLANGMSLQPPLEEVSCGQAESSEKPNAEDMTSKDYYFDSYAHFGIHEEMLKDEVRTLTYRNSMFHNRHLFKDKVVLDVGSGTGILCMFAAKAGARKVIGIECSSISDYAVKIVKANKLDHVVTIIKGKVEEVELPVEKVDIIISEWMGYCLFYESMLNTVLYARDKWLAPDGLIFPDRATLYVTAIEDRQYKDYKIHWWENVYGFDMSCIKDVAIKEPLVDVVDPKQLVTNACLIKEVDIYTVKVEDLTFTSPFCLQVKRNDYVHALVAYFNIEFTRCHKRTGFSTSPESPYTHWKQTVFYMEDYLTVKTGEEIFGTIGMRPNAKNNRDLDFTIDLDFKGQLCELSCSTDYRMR
In words: RKO methylation assay, In Cell Western (ICW) for mono-methyl arginine and DNA content. Type of test: cell-based. The conditions noted are these: RKO cells, 72 hours, mono-methyl arginine signal normalised to DRAQ5, percent activation. The source says:
RKO Methylation Assay RKO adherent cells were purchased from ATCC (American Type Culture Collection), Manassas, Va., USA. DMEM/Glutamax medium, penicillin-streptomycin, heat inactivated fetal bovine serum, 0.05% trypsin and D-PBS were purchased from Life Technologies, Grand Island, N.Y., USA. Odyssey blocking buffer, 800CW goat anti-rabbit IgG (H+L) antibody, and Licor Odyssey infrared scanner were purchased from Licor Biosciences, Lincoln, Nebr., USA. Mono-methyl arginine antibody was purchased from Cell Signaling Technology, Danvers, Mass., USA. Methanol was purchased from VWR, Franklin, Mass., USA. 10% Tween 20 was purchased from KPL, Inc., Gaithersburg, Md., USA. DRAQ5 was purchased from Biostatus Limited, Leicestershire, UK. RKO adherent cells were maintained in growth medium (DMEM/Glutamax medium supplemented with 10% v/v heat inactivated fetal bovine serum and 100 units/mL penicillin-streptomycin) and cultured at 37° C. under 5% CO2. Cell Treatment, in Cell Western (ICW) for Detection of Mono-Methyl Arginine and DNA Content. RKO cells were seeded in assay medium at a concentration of 20,000 cells per mL to a poly-D-lysine coated 384 well culture plate (BD Biosciences 356697) with 50 μL per well. Compound (100 nL) from a 96-well source plate was added directly to 384 well cell plate. Plates were incubated at 37° C., 5% CO2 for 72 hours. After three days of incubation, plates were brought to room temperature outside of the incubator for ten minutes and blotted on paper towels to remove cell media. 50 μL of ice cold 100% methanol was added directly to each well and incubated for 30 min at room temperature. After 30 min, plates were transferred to a Biotek EL406 plate washer and washed 2 times with 100 μL per well of wash buffer (1×PBS). Next 60 μL per well of Odyssey blocking buffer (Odyssey Buffer with 0.1% Tween 20 (v/v)) were added to each plate and incubated 1 hour at room temperature. Blocking buffer was removed and 20 μL per well of primary antibody was added (mono-methyl arginine diluted 1:200 in Odyssey buffer with 0.1% Tween 20 (v/v)) and plates were incubated overnight (16 hours) at 4° C. Plates were washed 5 times with 100 μL per well of wash buffer. Next 20 μL per well of secondary antibody was added (1:200 800CW goat anti-rabbit IgG (H+L) antibody, 1:1000 DRAQ5 (Biostatus limited) in Odyssey buffer with 0.1% Tween 20 (v/v)) and incubated for 1 hour at room temperature. The plates were washed 5 times with 100 μL per well wash buffer then 2 times with 100 μL per well of water. Plates were allowed to dry at room temperature then imaged on the Licor Odyssey machine which measures integrated intensity at 700 nm and 800 nm wavelengths. Both 700 and 800 channels were scanned. […] Each plate included fourteen control wells of DMSO only treatment (minimum activation) as well as fourteen control wells for maximum activation treated with 20 μM of a reference compound. The average of the ratio values for each control type was calculated and used to determine the percent activation for each test well in the plate. Reference compound was serially diluted three-fold in DMSO for a total of nine test concentrations, beginning at 20 μM. Percent activation was determined and EC30 curves were generated using triplicate wells per concentration of compound.
As for `CN(CCN)Cc1nn(C)cc1[C@H]1CC[C@]2(CC1)CC(C)(C)CO2` [compound 102], the “PRMT1 RGG ICW EC30” value was 446.7 nM.
Under `CNCCN(C)Cc1nn(C)cc1[C@H]1CC[C@]2(CC1)CC(C)(C)CO2` [compound 103] stands 597.4 nM; under `CN(CCN)Cc1c[nH]nc1[C@H]1CC[C@@]2(CC1)CC(C)(C)CO2` [compound 105], 12.12 nM.
For `CN(CCN)Cc1c[nH]nc1[C@H]1CC[C@]2(CC1)CC(C)(C)CO2` [compound 106] the value was 45.27 nM.
Under `CNCCN(C)Cc1c(C)noc1[C@H]1CC[C@]2(CC1)CC(C)(C)CO2` [compound 114] stands greater than 10000 nM; under `CNCCN(C)Cc1n[nH]cc1[C@H]1CC[C@@]2(CC1)CC(C)(C)CO2` [compound 115], 20.34 nM; under `CNCCN(C)Cc1n[nH]cc1[C@H]1CC[C@]2(CC1)CC(C)(C)CO2` [compound 116], 154.5 nM.
In the case of `CNCCN(C)Cc1nocc1[C@H]1CC[C@@]2(CC1)CC(C)(C)CO2` [compound 117], the “PRMT1 RGG ICW EC30” value was 863.2 nM.
For `CCOCC1(COCC)CCC(c2n[nH]cc2CN(C)CCN(C)C)CC1` [compound 121] the value was 117.5 nM; for `CCOCC1(COCC)CCC(c2nn(C)cc2CN(C)CCNC)CC1` [compound 122], 22.11 nM.
On to `CCOCC1(COCC)CCC(c2n[nH]cc2CN(C)CCN)CC1` [compound 123], for which the “PRMT1 RGG ICW EC30” value was 17.8 nM.
Consider `CCOCC1(COCC)CCC(c2nn(C)cc2CN(C)CCN)CC1` [compound 124], for which the “PRMT1 RGG ICW EC30” value was found to be 55.87 nM.
Under `CNCCN(C)Cc1c[nH]nc1C1CCC2(CC1)CC(C)(C)OC2=O` (stereo not drawn) [compound 125] stands 14.88 nM.
Under `CNCCN(C)Cc1c[nH]nc1[C@H]1CC[C@@]2(CC1)COC(C)(C)C2` [compound 126, N1-((3-((5r,8r)-3,3-dimethyl-2-oxaspiro[4.5]decan-8-yl)-1H-pyrazol-4-yl)methyl)-N1,N2-dimethylethane-1,2-diamine] stands 15.26 nM.
Consider `CNCCN(C)Cc1c[nH]nc1[C@H]1CC[C@]2(CCCCO2)CC1` [compound 127, methyl([2-[methyl([3-[(6s,9r)-1-oxaspiro[5.5]undecan-9-yl]-1H-pyrazol-4-yl]methyl)amino]ethyl])amine bistrifluoroacetic acid salt], for which the “PRMT1 RGG ICW EC30” value worked out at 8.48 nM.
